Experimental findings from patent publication US20240002470A1, “Method for separation and/or detection and/or in vitro quantification of infectious compounds in biological material” (priority 2020, published 2024) are described below.

The subject of one assay is E. coli B6054. Description: Capture on magnetic microbeads coated with pepβ2GPI: H61 E. coli B6054. It is filed as binding. As to the method: (§1) To test the interaction of microbeads coated with β2GPI and the peptides derived from them, with bacteria present in the blood, 1 ml of blood culture is taken from each sample and placed in a 15 ml tube. 20 μl of microbeads are added and each tube is incubated at 37° C. with horizontal shaking. The tubes are then placed in a magnetic field which retains the microbeads on the wall and the supernatant is removed. The microbeads are then washed twice with sterile PBS, of the same composition as previously indicated; the microbeads are then resuspended in 150 μl of BTS culture medium. Two methods for detecting bacteria captured by microbeads were used: culture on TS agar and PCR For the detection of the bacterial capture by culture, 50 μl of the suspension of microbeads thus obtained are taken and they are spread out in a Petri dish containing TS agar. Petri dishes are incubated in an oven at 37° C. for 24 hours. The bacteria that have grown on the agar were then counted.
(§2) The tested bacteria are: C3 E. coli ATCC 11105, C5 S. aureus ATCC 6538, H61 E. coli B6054, C1: E. coli ATCC 8739, H46: C. albicans 1 and H: 60 SCN
(§3) The same protocol and primers as those described in example 9 were carried out.

The subject of a further assay is E. coli ATCC 11105. Description: Capture on magnetic microbeads coated with pepβ2GPI: C3 E. coli ATCC 11105. It is filed as binding. The method, then:
as §1, §2, §3

A further assay deals with S. aureus ATCC 6538. Briefly: Capture on magnetic microbeads coated with pepβ2GPI: C5 S. aureus ATCC 6538. In kind it is binding. As to the method:
as §1, §2, §3

A further assay has as its system Yeast. Briefly: Capture from blood culture on magnetic microbeads, culture on TS agar: yeast. In kind it is binding. As to the method: The beads, on which β2GPI and peptides derived therefrom were grafted, were used for the capture of bacteria present in human blood and highlighted by blood culture.
These blood cultures are carried out by placing a venous blood sample […] in aerobic vials of BacT/ALERT®3D type. These flasks are then incubated in an automated system at 35° C. for at least 5 days. The bottles are equipped with a colorimetric detection system with a sensor located at the base of each bottle. Carbon dioxide produced by growing bacteria changes the color of the sensor; this change in color is detected by an automated system and indicates the presence of bacterial growth: these blood cultures are said to be positive. In the BacT/ALERT®3D vials there are particles of activated carbon, which inhibit antibiotics potentially present in the blood of patients, thereby improving the detection of microorganisms. To confirm the presence of bacteria in blood cultures which have been found positive, the hospital performs a culture on blood agar. […]
To test the interaction of microbeads coated with β2GPI and the peptides derived from them, with bacteria present in the blood, 1 ml of blood culture is taken from each sample and placed in a 15 ml tube. […] The bacteria that have grown on the agar were then counted.

Assay [1] deals with endogenous human retrovirus antigen (HERV), envelope protein of HERV-W. Briefly: Capture of HERV antigen from serum on ELISA-type microtiter plates. In kind it is binding. As to the method: The desired compound is an endogenous human retrovirus antigen (HERV: human endogenous retrovirus). Their research was carried out on serum from patients with autoimmune pathologies as well as on serum from healthy donors.
The support used is a microtiter plate of the ELISA type, with 96 wells and flat bottom, sold by the company “DYNATECH”. Four samples of serum from healthy donors and four samples from patients with autoimmune disease were used.
The serum sample is diluted ten times in 50 mM Tris-HCl buffer, pH 7.6±0.05.
100 μl of this solution are placed at the bottom of each well of the microplate.
This is then incubated at +37° C. for 90 minutes. The liquid from each well is then aspirated. Then 300 to 400 μl of phosphate buffer containing 0.01 mole/I of sodium and disodium phosphates and 0.15 mole/I of sodium chloride and having a pH of 7.00±0.05 are introduced into each well.
It is left in contact with the support for 3 minutes and the buffer is aspirated; this washing operation is carried out three times.
Next, 100 μl of a specific murine monoclonal antibody solution directed against the envelope protein of the endogenous HERV-W retrovirus is added per well.
The plate is left at 37° C. for 60 minutes.
Following this incubation, the contents of the wells of the plate are aspirated. 300 to 400 μl of phosphate buffer, described above, are introduced into each well, and after a contact time of 3 minutes, the buffer is aspirated; this washing operation is carried out three times.
Then, 100 μL of a solution of a polyclonal antibody recognizing the murine antibodies are added per well. The plate is left at 37° C. for 60 minutes. Following this incubation, the contents of the wells of the plate are aspirated. 300 to 400 μl of phosphate buffer, described above, are introduced into each well, and after a contact time of 3 minutes, the buffer is aspirated; this washing operation is carried out six times.
100 μl of a solution of o-phenylene diamine, 2HCl in a sodium citrate buffer are added per well. It is left to incubate for 30 minutes at room temperature, then the reaction is stopped by adding to each well 50 μl of 2N H2 SO4. The absorbance at 492 nm obtained at the end of the reaction is measured using a plate reader robot.
Results in the following table are expressed in P/2N, P corresponding to the average of the absorbances obtained for a given serum and N corresponding to the average of the absorbances obtained from healthy donors, multiplied by 2.

For a further assay, the system named is S. aureus, SA 378804. Briefly: Capture of S. aureus SA 378804 on magnetic microbeads, culture and counting. In kind it is binding, Staphylococcus aureus. The settings on record: S. aureus SA 378804 colonies from captured beads. The method, then: One ml of the culture of bacteria to be studied is placed in a hemolysis tube. 100 μl of buffer are added, the trade name of which is TTGB, then 20 μl of microbeads. The tube is stirred horizontally, to mix the microbeads well, and incubated at 37° C. or at room temperature (TA=22° C.) for half an hour. At the end of the incubation, the microbeads are separated from the liquid phase by means of a magnet, placed externally against the wall of the tube. The microbeads are then washed twice with LB medium and then resuspended in 1 ml of BTS culture medium (Tripticase-Soy broth) having the following formulation: […]
This culture medium is brought to a boil and then autoclaved, to make it sterile, before use. 20 μl of the microbead suspension are taken and spread in a Petri dish containing TS agar (Trypticase-Soya agar) having the following formulation: […]
The Petri dishes are incubated at +37° C. for 24 hours. The bacteria that have grown on the agar are then counted.
The used bacterium is a strain of Staphylococcus aureus (S. aureus), SA 378804, isolated from the wound of the foot of a diabetic person, Sotto et al., Diabetes Care (2008) 31 (12), p. 2318-24. The same experiment as that described in the previous example was carried out.

The mark [2] stands for this setting: serum 6s (patient with autoimmune pathology).
[3] abbreviates: serum 45s (patient with autoimmune pathology).
Where [4] appears, read: serum 99s (patient with autoimmune pathology).
[5] abbreviates: serum 100s (patient with autoimmune pathology).

Turning to H-((SSLAFWK)2-K)2-K—NH2 [Peptide P11], the “Capture of H61 E. coli B6054” value with E. coli B6054 was 90%. For the same molecule, in the assay on E. coli ATCC 11105, the “Capture of C3 E. coli ATCC 11105” value was 43%. Moreover, the “Capture of C5 S. aureus ATCC 6538” value in the assay with S. aureus ATCC 6538 was found to be 63%. Moreover, in the assay with Yeast, the “% compared to β2GPI” value stood at 89%. The P/2N turned out to be 1.185 in assay [1] (setting [2]); 1.228 in assay [1] (setting [3]); 0.977 in assay [1] (setting [4]); 4.039 in assay [1] (setting [5]); 0.77 in assay [1] (serum DS 45s (healthy donor)); 0.718 in assay [1] (serum DS 46s (healthy donor)). Further, the P/2N in assay [1] (serum DS 60s (healthy donor)) is on record as 0.631; in assay [1] (serum DS 61s (healthy donor)), 0.727.

B1: β2GPI: plasma glycoprotein called β2-glycoprotein I, grafted on beads as the reference (protein, UniProt P02749 20-345, looked up)
Beta-2-glycoprotein 1: GRTCPKPDDLPFSTVVPLKTFYEPGEEITYSCKPGYVSRGGMRKFICPLTGLWPINTLKCTPRVCPFAGILENGAVRYTTFEYPNTISFSCNTGFYLNGADSAKCTEEGKWSPELPVCAPIICPPPSIPTFATLRVYKPSAGNNSLYRDTAVFECLPQHAMFGNDTITCTTHGNWTKLPECREVKCPFPSRPDNGFVNYPAKPTLYYKDKATFGCHDGYSLDGPEEIECTKLGNWSAMPSCKASCKVPVKKATVVYQGERVKIQEKFKNGMLHGDKVSFFCKNKEKKCSYTEDAQCIDGTIEVPKCFKEHSSLAFWKTDASDVKPC
modifications: grafted on beads
As for B1, the “% compared to β2GPI” value in the assay with Yeast was found to be 100%; in the assay with S. aureus, SA 378804, 100%. In addition, the P/2N in assay [1] (setting [2]) is reported as 0.928; in assay [1] (setting [3]), 1.112; in assay [1] (setting [4]) it was 0.974; in assay [1] (setting [5]), 4.9; in assay [1] (serum DS 45s (healthy donor)), 0.69; in assay [1] (serum DS 46s (healthy donor)) it was 0.79. Also, the results for the P/2N in assay [1] (serum DS 60s (healthy donor)) and in assay [1] (serum DS 61s (healthy donor)) were 0.637 and 0.498, respectively.
